Assay results reported in patent publication US8946438B2, “Benzamides, production thereof, and use thereof as medicaments” (Boehringer Ingelheim International GmbH, priority 2008, dated 2015).

Each compound was assayed against p38 MAP-kinase (Homo sapiens, UniProt Q16539) (assay: Enzymatic assay: inhibition of p38 MAP-kinase (phosphorylation of GST-tagged ATF2, chemoluminescence bead readout)). Details: inhibitor 1 μM; activated p38 MAP-kinase 1 nM; 4 h preincubation; ATP 100 μM; ATF2 10 nM; read-out: % inhibitory effect at 1 μM.
p38 MAP-kinase, sequence (Q16539 whole entry): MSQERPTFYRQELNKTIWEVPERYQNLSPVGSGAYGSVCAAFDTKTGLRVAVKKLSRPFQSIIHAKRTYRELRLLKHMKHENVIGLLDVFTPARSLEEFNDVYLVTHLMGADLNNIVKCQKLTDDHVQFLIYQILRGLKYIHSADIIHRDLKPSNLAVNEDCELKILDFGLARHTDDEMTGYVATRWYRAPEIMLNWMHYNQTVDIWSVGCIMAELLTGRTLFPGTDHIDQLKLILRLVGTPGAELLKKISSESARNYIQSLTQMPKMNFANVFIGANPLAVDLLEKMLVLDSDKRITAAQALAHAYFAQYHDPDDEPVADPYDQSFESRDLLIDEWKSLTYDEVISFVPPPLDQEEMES
Type: biochemical
Protocol: In this, the amount of a substrate phosphorylated by the kinase is quantified. The test is carried out as follows:
The kinase reaction is carried out in the presence of HEPES (20 mM, pH 7), MgCl2 (10 mM), DTT (1 mM) and TWEEN20 (0.01%). First, dimethylsulphoxide or inhibitor (final concentration: 1 μM) dissolved in dimethylsulphoxide are placed in a reaction vessel. Then the activated p38 MAP-kinase (final concentration 1 nM) is added and the mixture is incubated for 4 h at ambient temperature. Then a mixture of substrate (GST-tagged ATF2) and ATP is added and everything is incubated together for a further hour (final concentration ATP: 100 μM; final concentration ATF2: 10 nM).
The concentration of phosphorylated ATF2 is quantified by chemoluminescence-induced light emission. For this, a glutathione donor bead (final concentration: 5 μg/ml) which binds to the gluthathione on the ATF2 and phospho-ATF2 antibodies are added to the reaction mixture (final concentration: 3 nM; this binds the phosphate group added by the kinase reaction) to which a Protein A Acceptor Bead (final concentration: 5 μg/ml) binds. These components are dissolved in a buffer which contains 20 mM HEPES pH 7.0, 200 mM NaCL, 80 mM EDTA as well as 0.3% BSA. This reaction mixture is incubated in the dark for 1 hour at ambient temperature. When these beads come physically close, visible light is emitted which is measured in a photometer at 520-620 nm.
To determine the inhibitory activity of the compounds according to the invention a calculation is made to determine the percentage by which the kinase activity is inhibited at a fixed inhibitor concentration of 1 μM. The maximum activity is determined by non-inhibited kinase. The minimum activity or nonspecific background activity is determined using a reaction mixture without kinase. […] Table 2 summarises the degree of inhibition of the enzyme p38 MAP-kinase—as described hereinbefore—of the compounds according to the invention detailed in the section “Preparation of the final compounds”.
An inhibition at 1 µM of 98.7% was found for `COc1c(NC(=O)c2ccc(C)c(Oc3cc(CC4CCNCC4)ncn3)c2)cc(C(C)(C)C)cc1NS(C)(=O)=O` [5(18), N-(5-tert-butyl-3-methanesulphonylamino-2-methoxy-phenyl)-4-methyl-3-(6-piperidin-4-ylmethyl-pyrimidin-4-yloxy)-benzamide] in this work.
An inhibition at 1 µM of 99.5% was found for `COc1c(NC(=O)c2ccc(C)c(Oc3ccnc(CC4CCNCC4)c3)c2)cc(C(C)(C)C)cc1S(C)(=O)=O` [11(3), N-(5-tert-butyl-3-methanesulphonyl-2-methoxy-phenyl)-4-methyl-3-(2-piperidin-4-ylmethyl-pyridin-4-yloxy)-benzamide] in this work.
An inhibition at 1 µM of 94.8% was found for `COc1c(NC(=O)c2ccc(C)c(Oc3cc(NCCN(C)C)ncn3)c2)cc(C(C)(C)C)cc1NS(C)(=O)=O` [4(2), N-(5-tert-butyl-3-methanesulphonylamino-2-methoxy-phenyl)-3-[6-(2-dimethylamino-ethylamino)-pyrimidin-4-yloxy]-4-methyl-benzamide] in this work.
An inhibition at 1 µM of 98.8% was found for `COc1c(NC(=O)c2ccc(Cl)c(Oc3cc(CN4CCCN(C)CC4)ncn3)c2)cc(C(C)(C)C)cc1NS(C)(=O)=O` [8(38), N-(5-tert-butyl-3-methanesulphonylamino-2-methoxy-phenyl)-4-chloro-3-[6-(4-methyl-[1,4]diazepan-1-ylmethyl)-pyrimidin-4-yloxy]-benzamide] in this work.
An inhibition at 1 µM of 99.3% was found for `COc1c(NC(=O)c2ccc(Cl)c(Oc3ccnc(CN4CCCNCC4)c3)c2)cc(C(C)(C)C)cc1NS(C)(=O)=O` [5(37), N-(5-tert-butyl-3-methanesulphonylamino-2-methoxy-phenyl)-4-chloro-3-(2-[1,4]diazepan-1-ylmethyl-pyridin-4-yloxy)-benzamide] in this work.
An inhibition at 1 µM of 98.9% was found for `COc1c(NC(=O)c2ccc(C)c(Oc3ccnc(NC4CCNCC4)n3)c2)cc(C(C)(C)C)cc1NS(C)(=O)=O` [5(16), N-(5-tert-butyl-3-methanesulphonylamino-2-methoxy-phenyl)-4-methyl-3-[2-(piperidin-4-ylamino)-pyrimidin-4-yloxy]-benzamide] in this work.
An inhibition at 1 µM of 96.7% was found for `COc1c(NC(=O)c2ccc(C)c(Oc3ccnc(CN[C@H]4CCOC4)c3)c2)cc(C(C)(C)C)cc1NS(C)(=O)=O` [8(11), (S)-N-(5-tert-butyl-3-methanesulphonylamino-2-methoxy-phenyl)-4-methyl-3-{2-[(tetrahydro-furan-3-ylamino)-methyl]-pyridin-4-yloxy}-benzamide] in this work.
An inhibition at 1 µM of 98.3% was found for `COc1c(NC(=O)c2ccc(Cl)c(Oc3ccnc(N4CCNCC4)n3)c2)cc(C(C)(C)C)cc1NS(C)(=O)=O` [5(5), N-(5-tert-butyl-3-methanesulphonylamino-2-methoxy-phenyl)-4-chloro-3-(2-piperazin-1-yl-pyrimidin-4-yloxy)-benzamide] in this work.
An inhibition at 1 µM of 94.1% was found for `COc1c(NC(=O)c2ccc(C)c(Oc3cc(CN4CCNC(=O)C4)ncn3)c2)cc(C(C)(C)C)cc1NS(C)(=O)=O` [8(7), N-(5-tert-butyl-3-methanesulphonylamino-2-methoxy-phenyl)-4-methyl-3-[6-(3-oxo-piperazin-1-ylmethyl)-pyrimidin-4-yloxy]-benzamide] in this work.
An inhibition at 1 µM of 97.1% was found for `COc1c(NC(=O)c2ccc(Cl)c(Oc3ccnc(CN(C)CCN(C)C)c3)c2)cc(C(C)(C)C)cc1NS(C)(=O)=O` [8(33), N-(5-tert-butyl-3-methanesulphonylamino-2-methoxy-phenyl)-4-chloro-3-(2-{[(2-dimethylamino-ethyl)-methyl-amino]-methyl}-pyridin-4-yloxy)-benzamide] in this work.
An inhibition at 1 µM of 99.2% was found for `COc1c(NC(=O)c2ccc(C)c(Oc3ccnc(CC4CCNCC4)c3)c2)cc(C(F)(F)F)cc1NS(C)(=O)=O` [5(49), N-(3-methanesulphonylamino-2-methoxy-5-trifluoromethyl-phenyl)-4-methyl-3-(2-piperidin-4-ylmethyl-pyridin-4-yloxy)-benzamide] in this work.
An inhibition at 1 µM of 98.5% was found for `COc1c(NC(=O)c2ccc(C)c(Oc3ccnc(CC4CCN(C)CC4)c3)c2)cc(C(C)(C)C)cc1NS(C)(=O)=O` [9(2), N-(5-tert-butyl-3-methanesulphonylamino-2-methoxy-phenyl)-4-methyl-3-[2-(1-methyl-piperidin-4-ylmethyl)-pyridin-4-yloxy]-benzamide] in this work.
An inhibition at 1 µM of 97% was found for `COc1c(NC(=O)c2ccc(C)c(Oc3ccnc(CC4CCCNCC4)n3)c2)cc(C(C)(C)C)cc1NS(C)(=O)=O` (stereo not shown) [5(53), 3-(2-azepan-4-ylmethyl-pyrimidin-4-yloxy)-N-(5-tert-butyl-3-methanesulphonylamino-2-methoxy-phenyl)-4-methyl-benzamide] in this work.
An inhibition at 1 µM of 94.4% was found for `COc1c(NC(=O)c2cc(C)cc(Oc3ccncc3)c2)cc(C(C)(C)C)cc1NS(C)(=O)=O` [Example 6, N-(5-tert-butyl-3-methanesulphonylamino-2-methoxy-phenyl)-3-methyl-5-(pyridin-4-yloxy)-benzamide] in this work.
An inhibition at 1 µM of 95.6% was found for `CNC(=O)c1cc(Oc2cc(C(=O)Nc3cc(C(C)(C)C)cc(NS(C)(=O)=O)c3OC)ccc2C)ncn1` [Example 7, 6-[5-(5-tert-butyl-3-methanesulphonylamino-2-methoxy-phenylaminocarbonyl)-2-methyl-phenoxy]-pyrimidin-4-carboxylic acid-methylamide] in this work.
An inhibition at 1 µM of 98.7% was found for `COc1c(NC(=O)c2ccc(C)c(Oc3ccnc(CN4CCCN(C)CC4)n3)c2)cc(C(C)(C)C)cc1NS(C)(=O)=O` [8(16), N-(5-tert-butyl-3-methanesulphonylamino-2-methoxy-phenyl)-4-methyl-3-[2-(4-methyl-homopiperazin-1-ylmethyl)-pyrimidin-4-yloxy]-benzamide] in this work.
An inhibition at 1 µM of 91.3% was found for `COc1c(NC(=O)c2ccc(C)c(Oc3cc(CN(C)CCN(C)C)ncn3)c2)cc(C(C)(C)C)cc1NS(C)(=O)=O` [8(30), N-(5-tert-butyl-3-methanesulphonylamino-2-methoxy-phenyl)-3-(6-{[(2-dimethylamino-ethyl)-methyl-amino]-methyl}-pyrimidin-4-yloxy)-4-methyl-benzamide] in this work.
An inhibition at 1 µM of 99.3% was found for `COc1c(NC(=O)c2ccc(Cl)c(Oc3ccnc(CN4CCN(C)CC4)c3)c2)cc(C(C)(C)C)cc1NS(C)(=O)=O` [12(4), N-(5-tert-butyl-3-methanesulphonylamino-2-methoxy-phenyl)-4-chloro-3-[2-(4-methyl-piperazin-1-ylmethyl)-pyridin-4-yloxy]-benzamide] in this work.
An inhibition at 1 µM of 97% was found for `COc1c(NC(=O)c2ccc(C)c(Oc3ccnc(CN(C)C4CCN(C)C4)n3)c2)cc(C(C)(C)C)cc1NS(C)(=O)=O` (stereo not shown) [8(19), N-(5-tert-butyl-3-methanesulphonylamino-2-methoxy-phenyl)-4-methyl-3-(2-{[methyl-(1-methyl-pyrrolidin-3-yl)-amino]-methyl}-pyrimidin-4-yloxy)-benzamide] in this work.
An inhibition at 1 µM of 99.4% was found for `COc1c(NC(=O)c2ccc(C)c(Oc3ccnc(CC4CCNCC4)c3)c2)cc(C(C)(C)C)cc1[S+](C)[O-]` (stereo not shown) [5(48), N-(5-tert-butyl-3-methanesulphinyl-2-methoxy-phenyl)-4-methyl-3-(2-piperidin-4-ylmethyl-pyridin-4-yloxy)-benzamide] in this work.
An inhibition at 1 µM of 97.6% was found for `COc1c(NC(=O)c2ccc(C)c(Oc3cc(NC4CCNC4)ncn3)c2)cc(C(C)(C)C)cc1NS(C)(=O)=O` (stereo not shown) [5(26), N-(5-tert-butyl-3-methanesulphonylamino-2-methoxy-phenyl)-4-methyl-3-[6-(pyrrolidin-3-ylamino)-pyrimidin-4-yloxy]-benzamide] in this work.
An inhibition at 1 µM of 92.6% was found for `COc1c(NC(=O)c2ccc(Cl)c(Oc3cc(CN(C)CCN(C)C)ncn3)c2)cc(C(C)(C)C)cc1NS(C)(=O)=O` [8(32), N-(5-tert-butyl-3-methanesulphonylamino-2-methoxy-phenyl)-4-chloro-3-(6-{[(2-dimethylamino-ethyl)-methyl-amino]-methyl}-pyrimidin-4-yloxy)-benzamide] in this work.
An inhibition at 1 µM of 98.6% was found for `COc1c(NC(=O)c2ccc(C)c(Oc3ccnc(N4CCC(N(C)C)CC4)n3)c2)cc(C(C)(C)C)cc1NS(C)(=O)=O` [4(8), N-(5-tert-butyl-3-methanesulphonylamino-2-methoxy-phenyl)-3-[2-(4-dimethylamino-piperidin-1-yl)-pyrimidin-4-yloxy]-4-methyl-benzamide] in this work.
An inhibition at 1 µM of 95.2% was found for `COc1c(NC(=O)c2ccc(C)c(Oc3ccnc(CN4CCOCC4)n3)c2)cc(C(C)(C)C)cc1NS(C)(=O)=O` [8(3), N-(5-tert-butyl-3-methanesulphonylamino-2-methoxy-phenyl)-4-methyl-3-(2-morpholin-4-ylmethyl-pyrimidin-4-yloxy)-benzamide] in this work.
An inhibition at 1 µM of 97.5% was found for `COc1c(NC(=O)c2ccc(C)c(Oc3cc(N4CCCC4)ncn3)c2)cc(C(C)(C)C)cc1NS(C)(=O)=O` [4(4), N-(5-tert-butyl-3-methanesulphonylamino-2-methoxy-phenyl)-4-methyl-3-(6-pyrrolidin-1-yl-pyrimidin-4-yloxy)-benzamide] in this work.
